Key:
[1] = test system: pain syndrome provoked in mice by injection of phenylbenzoquinone; experiment: analgesia test of Siegmund, Cadmus and Lu (phenylbenzoquinone-induced pain syndrome); type: in vivo, mice of Swiss strain; conditions: oral, 30 minutes before phenylbenzoquinone, extensions counted over 10 minutes vs control
Protocol: They have in particular been submitted to the test of analgesia of Siegmund, Cadmus and Lu (Proc. Soc. Exp. Biol. Med. 95, 729, 1957) according to which a characteristic pain syndrome is provoked in mice by injection of phenylbenzoquinone.
The animals used are mice of Swiss strain weighing 20±2 grams.
The animals are separated into groups of 10, randomly but are individually submitted to experiments. Each experiment is carried out on at least two groups:
a control group receiving solvent and phenylbenzoquinone
a group treated with test compound.
The test compounds are administered orally, 30 minutes before the injection of the irritant. Each mouse then receives intraperitoneally 0.25 ml of a 0.02% phenylbenzoquinone solution.
The pain syndrome generated by the injection of phenylbenzoquinone consists of extension of the abdomen and the back legs; at the height of the reaction, the flanks of the animal are very contracted. 5 Minutes after the injection of the irritant, the extensions are counted over a period of 10 minutes.
For each group, the mean number of extensions is calculated. The activity (A) of the test compound is determined by comparison between the mean number of extensions in the treated animals (N) and the mean number of extensions in the control animals (N') according to the equation [formula]
The statistical significance of the result thus obtained is evaluated by the non-parametric test of Fisher.

oral LD50 = conditions: in vivo
Protocol: In addition the oral LD50 was determined for the compounds of the invention.

SMILES	Analgesic Activity A ([1]; dose 100 mg/kg) [%]	LD50 (oral LD50) [mg/kg]	Analgesic Activity A ([1]; dose 150 mg/kg) [%]	Analgesic Activity A ([1]; dose 50 mg/kg) [%]	Analgesic Activity A ([1]; dose 200 mg/kg) [%]
C#CCOc1ccc2c(C)c(CC)c(=O)oc2c1 [JB 4, 3-Ethyl-4-methyl-7-propargyloxy-coumarin]	65	1000			
C#CCOc1ccc2c(C)cc(=O)oc2c1 [JB 2, 4-Methyl-7-propargyloxy-coumarin]		1500	98		
C#CCOc1ccc2c(C)c(CC=C)c(=O)oc2c1 [JB 19, 3-Allyl-4-methyl-7-propargyloxy-coumarin]		1500	81		
C#CCOc1ccc2ccc(=O)oc2c1 [JB 1, 7-Propargyloxy-coumarin]		1500	55		
Cc1cc(=O)oc2cc(OCC#CCN3CCOCC3)ccc12 [JB 12, 4-Methyl-7-(4-morpholino-but-2-ynyloxy)-coumarin]		1500	88		
Cc1cc(=O)oc2cc(OCC#CCN(C)C)ccc12 [JB 16, 4-Methyl-7-(4-dimethylamino-but-2-ynyloxy)-coumarin]		500		30	
C#CCOc1ccc2c(-c3ccccc3[N+](=O)[O-])cc(=O)oc2c1 [JB 5, 4-o-nitrophenyl-7-propargyloxy-coumarin]		> 2000			40

Source: US4151291A, “Ethers of 7-hydroxy-coumarin useful as medicaments” (Unicler, priority 1976, dated 1979)
